ChEMBL document CHEMBL1145700, “Pyraxinine, a Novel Nitrogenous Compound from the Marine Sponge Cymbastela cantharella” (J Nat Prod, 1997)

Experiment: Inhibition of LPS-induced macrophagic NOS at 100 uM

With N=C(N)Nc1cccnc1 the inhibition was 50%.
